According to PMC11982291 (Communications Biology, 2025):

Legend:
[1] = target: XRN1 (5’-3’ exoribonuclease 1) (Homo sapiens, UniProt Q8IZH2); experiment: SPR; type: binding
XRN2 = target: T1, XRN2 (Homo sapiens, UniProt Q9H0D6); experiment: SPR; type: binding
T1 sequence (Q9H0D6 1-790): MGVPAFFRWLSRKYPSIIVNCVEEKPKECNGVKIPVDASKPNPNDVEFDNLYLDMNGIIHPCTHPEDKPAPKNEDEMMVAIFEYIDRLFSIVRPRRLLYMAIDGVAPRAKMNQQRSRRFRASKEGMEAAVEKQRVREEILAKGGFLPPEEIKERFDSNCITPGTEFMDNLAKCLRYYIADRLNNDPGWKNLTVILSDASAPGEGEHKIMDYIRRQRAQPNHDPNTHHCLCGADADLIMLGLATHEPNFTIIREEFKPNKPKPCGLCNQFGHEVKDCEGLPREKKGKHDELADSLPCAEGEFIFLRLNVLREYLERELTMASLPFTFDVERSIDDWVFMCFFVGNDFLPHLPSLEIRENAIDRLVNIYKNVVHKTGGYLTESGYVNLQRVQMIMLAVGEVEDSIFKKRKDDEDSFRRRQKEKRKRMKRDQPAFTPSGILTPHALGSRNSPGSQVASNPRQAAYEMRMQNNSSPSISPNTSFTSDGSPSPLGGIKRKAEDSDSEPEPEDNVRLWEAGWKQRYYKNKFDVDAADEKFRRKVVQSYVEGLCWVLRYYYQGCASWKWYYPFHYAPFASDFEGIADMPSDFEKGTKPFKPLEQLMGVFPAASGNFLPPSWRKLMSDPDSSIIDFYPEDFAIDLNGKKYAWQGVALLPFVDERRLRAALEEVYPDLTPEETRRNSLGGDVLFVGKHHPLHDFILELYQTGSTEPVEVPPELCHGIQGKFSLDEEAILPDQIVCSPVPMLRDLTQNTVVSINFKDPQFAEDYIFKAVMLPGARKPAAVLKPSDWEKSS

Chain of XRN1 (5’-3’ exoribonuclease 1) (Q8IZH2 1-1191): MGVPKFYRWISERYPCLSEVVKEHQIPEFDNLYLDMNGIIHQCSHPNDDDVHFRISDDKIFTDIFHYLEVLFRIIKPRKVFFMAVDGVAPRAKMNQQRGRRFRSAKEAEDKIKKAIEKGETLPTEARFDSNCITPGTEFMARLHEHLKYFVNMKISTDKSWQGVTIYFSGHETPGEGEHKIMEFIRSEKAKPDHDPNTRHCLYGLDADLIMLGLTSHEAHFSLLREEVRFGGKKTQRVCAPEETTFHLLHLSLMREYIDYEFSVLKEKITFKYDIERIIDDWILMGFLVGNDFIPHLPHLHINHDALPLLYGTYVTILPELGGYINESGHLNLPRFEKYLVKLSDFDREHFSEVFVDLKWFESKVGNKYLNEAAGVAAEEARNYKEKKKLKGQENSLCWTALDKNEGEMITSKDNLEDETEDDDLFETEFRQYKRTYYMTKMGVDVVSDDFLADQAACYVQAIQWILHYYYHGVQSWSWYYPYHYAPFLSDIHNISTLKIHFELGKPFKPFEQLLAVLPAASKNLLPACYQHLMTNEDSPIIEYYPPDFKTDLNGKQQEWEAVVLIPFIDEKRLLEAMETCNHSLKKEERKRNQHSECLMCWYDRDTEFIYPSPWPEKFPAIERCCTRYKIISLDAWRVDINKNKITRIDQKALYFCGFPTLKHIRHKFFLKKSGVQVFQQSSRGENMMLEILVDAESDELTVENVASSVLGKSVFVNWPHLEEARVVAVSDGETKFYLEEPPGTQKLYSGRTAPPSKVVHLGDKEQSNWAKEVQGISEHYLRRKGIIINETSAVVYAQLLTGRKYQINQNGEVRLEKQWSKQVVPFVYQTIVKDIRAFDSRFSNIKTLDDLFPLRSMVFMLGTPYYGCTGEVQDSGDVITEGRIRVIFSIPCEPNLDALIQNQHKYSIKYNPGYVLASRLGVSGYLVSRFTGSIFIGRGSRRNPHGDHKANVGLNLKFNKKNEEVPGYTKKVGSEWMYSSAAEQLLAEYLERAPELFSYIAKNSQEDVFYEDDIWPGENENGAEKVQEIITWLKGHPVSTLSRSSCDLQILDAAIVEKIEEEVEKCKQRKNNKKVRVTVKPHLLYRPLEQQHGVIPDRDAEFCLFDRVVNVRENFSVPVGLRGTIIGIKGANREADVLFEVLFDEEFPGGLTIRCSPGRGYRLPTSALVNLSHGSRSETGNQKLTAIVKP

- Kd [1]: 0.012 ± 0.001 µM
- Kd (XRN2): 0.014 ± 0.004 µM
SMILES: Nc1ncnc2c1ncn2[C@@H]1O[C@H](COP(=O)(O)O)[C@@H](OP(=O)(O)O)[C@H]1O [pAp, adenosine-3’,5’-bisphosphate]
